The text below walks through data of patent publication US6353124B1, “Therapeutic compound-fatty acid conjugates” (priority 1993, dated 2002).

Read-outs that look alike come from different tables or passages of the source.

One series deals with UVB induced oedema. As to the kind of experiment: UVB induced oedema (net skin fold thickness increase) in SKH-1 hairless mice, topical application. In kind it is in vivo. As to conditions: for Immediate Activity Results, highest to lowest (ranking): painted after 3 MED UVB, 4% ibuprofen equivalent (Ibu-ATP3 at 2%), FIG. 5; for effect on oedema at 2%: 2% ibuprofen, as the conjugate or as the free drug; for photoprotection against UVB induced oedema against interval of application: crude 2% (30% purity, contaminated with GTP2), 100 μl, days -5 to 0, FIG. 3. The procedure: The vehicle used was a variation of previously published vehicles and consisted of ethanol:DMSO at a 5:1 ratio. […] The oedema was then determined by measuring the skin fold thickness (SFT) of a folded mid-dorsal piece of skin using a hand-held micrometer. Measurements were taken at 0 hours, just prior to UVB exposure and at 24 hours post UVB exposure. A control group, painted with 60 or 100 μl of the vehicle, was used to determine the increase in skin oedema due to the inflammatory response. […] The pre UVB SFT measurement was subtracted from the 24 hour SFT measurement, to determine the Net Skin Fold Thickness increase (NSFT).

The next series deals with UVB induced burns. Description: Effect on UVB induced burns in mice, topical application. In kind it is in vivo. The procedure:
(§1) Method Groups of 3 female mice were exposed to 3 MED of UVB on their dorsal surface and then were immediately painted (by smoothing the topical solution over the dorsal surface) with 60 μl or 100 μl of vehicle or vehicle containing increasing concentrations of NSAID's or NSAID fatty acid conjugates. The vehicle used was a variation of previously published vehicles and consisted of ethanol:DMSO at a 5:1 ratio. The test NSAID's and their conjugates were either applied after UVB irradiation to reduce the possibility of sun-screening effects (Day 0), or 1 to 5 days prior to UVB exposure. The oedema was then determined by measuring the skin fold thickness (SFT) of a folded mid-dorsal piece of skin using a hand-held micrometer. Measurements were taken at 0 hours, just prior to UVB exposure and at 24 hours post UVB exposure. A control group, painted with 60 or 100 μl of the vehicle, was used to determine the increase in skin oedema due to the inflammatory response. […] The pre UVB SFT measurement was subtracted from the 24 hour SFT measurement, to determine the Net Skin Fold Thickness increase (NSFT).
Individual scores are presented for each mouse ie a result indicated as 5,4,3 is interperated as the first mouse having a severe burn, the second mouse a moderate to severe burn and the third mouse a moderate burn.

The test system of series [1] is sunburn erythema. Particulars: 2.5% in propylene glycol:ethanol:dimethylacetamide (19:19:2), 3 MED of UV light, humans; cited from earlier work.
In series [2] the test system is sunburn erythema. Particulars: 2.5% in propylene glycol:ethanol:dimethylacetamide (19:19:2), 3 MED of UV light, guinea-pigs; cited from earlier work.
The test system of a further series is Skh-1 mouse. Description: Toxicity and tolerability of topically applied indomethacin in Skh-1 mice. In kind it is in vivo. As to conditions: painted on dorsal surface, range 0.1% to 2.5% tested. How it is done: as §1
As a preliminary study the ability of indomethacin to protect against oedema in Skh-1 mouse was determined. Indomethacin over a concentration range from 0.1% to 2.5% was applied after the mice had been irradiated with UVB; non-irradiated controls were also run. […]

Regarding `COc1ccc2c(c1)c(CC(=O)O)c(C)n2C(=O)c1ccc(Cl)cc1` [indomethacin, 1-(4-Chlorobenzoyl)-5-methoxy-2-methyl-1H-indole-3-acetic acid], the “anti-inflammatory effect at 0.1%” value in the series on UVB induced oedema (0.1% applied after UVB, 24 hours) is “mild anti-inflammatory effect”. The “erythema and oedema with concentration” value with UVB induced oedema (0.1% to 2.5% applied after UVB) is “decrease in erythema and oedema with increasing concentrations”. Also, in the series with UVB induced oedema (1% indomethacin, 3 days prior to exposure, FIG. 2), the “protection against UVB induced oedema, applied 3 days prior to UVB” value is recorded as “approximately 50%”. Further, the “protection against UVB induced oedema, applied 5 days prior to UVB” value with UVB induced oedema (1% indomethacin, 5 days prior to exposure, FIG. 2) is given as “not present”. Besides, the “protective effect on UVB induced oedema against interval of application” value with UVB induced oedema (100 μl of 1% solution, days -5 to -1 before UVB and Day 0, NSFT at 24 hours, FIG. 2) is recorded as “loses its protective effect on UVB induced oedema as the interval of application prior to exposure increases”. In the series with UVB induced oedema (applied after UVB, 24 hours, range 0.1% to 2.5%), the “concentration giving maximal protection against erythema and oedema” value is reported as not below 1%. Also, the “effect on burn repair” value in the series on UVB induced burns (indomethacin levels that prevent oedema) is on record as “little or no effect on burn repair”. The “protection against sunburn erythema” value in the series on sunburn erythema [1] and in the series on sunburn erythema [2] was “total protection” in each case. Also, the “topical concentration lethal after 36 hours (gastrointestinal haemorrhage)” value with Skh-1 mouse was not below 2%.
For ibuprofen-alanine-Tris [Ibu-AT], in the series on UVB induced oedema, the “Immediate Activity Results, highest to lowest (ranking)” value (shortened to “Immediate Activity Results, highest”) was 4% Ibu=4% Ibu-ATP>4% Ibu-ATP2>4% Ibu-AT=2% Ibu-ATP3.
Same read-out and setting: for “ibuprofen-alanine-Tris-dipalmitate [Ibu-ATP2]” the value was 4% Ibu=4% Ibu-ATP>4% Ibu-ATP2>4% Ibu-AT=2% Ibu-ATP3.
For “ibuprofen-alanine-Tris-monopalmitate [Ibu ATP1]”, in the series with UVB induced oedema, the “effect on oedema at 2%” value is recorded as “little effect on oedema” and the “Immediate Activity Results, highest” value is listed as 4% Ibu=4% Ibu-ATP>4% Ibu-ATP2>4% Ibu-AT=2% Ibu-ATP3. Further, the “protective effect on UVB induced burns” value with UVB induced burns (2%, painted after 3 MED UVB, compared with unmodified ibuprofen) is “protective effect on UVB induced burns to a much greater extent than unmodified ibuprofen”.
Turning to “ibuprofen-alanine-Tris-tripalmitate [Ibu-ATP3]”, the “Immediate Activity Results, highest” value with UVB induced oedema was 4% Ibu=4% Ibu-ATP>4% Ibu-ATP2>4% Ibu-AT=2% Ibu-ATP3.
As to “indomethacin-glycine-Tris-dipalmitate [Indo-GTP2]”, the entries for the “photoprotection against UVB induced oedema against interval of application” value with UVB induced oedema and in the series with UVB induced oedema (listed as indomethacin-glycine-Tris-dipalmitate) were “most protective 5 days prior to irradiation with UVB” and “most pronounced at 5 days prior to exposure with UVB”, respectively. Besides, the “prolonged and immediate protective activity against UVB induced oedema” value in the series on UVB induced oedema (high purity, 2% (indomethacin equivalent), painted 5 days prior to or immediately after UVB, compared with Indo-GTP3, Indo-EP1, Indo-GEP1, FIG. 4) is “highest levels of prolonged and immediate activity”.
Regarding “α-Methyl-4-(2-methylpropyl)benzene acetic acid [Ibu cont]”, in the series on UVB induced oedema, the “effect on oedema at 2%” value is “little effect on oedema” and the “Immediate Activity Results, highest” value is listed as 4% Ibu=4% Ibu-ATP>4% Ibu-ATP2>4% Ibu-AT=2% Ibu-ATP3.
